From patent US20230365563A1, “QUINAZOLINE COMPOUND AND APPLICATION THEREOF” (SHANGHAI PHARMACEUTICALS HOLDING CO., LTD., priority 2020, published 2023) come the findings set out here.

Molecules are shown by their SMILES. Counter-ions that a name gives are not always drawn.

One experiment has as its target T1, KRAS-G12D and SOS1 (Homo sapiens, UniProt P01116, G12D).
T1 construct: purchased
Description: Inhibition of KRAS-G12D/SOS1 binding (Cisbio binding kit, 665/615 ratio), Effect Embodiment A. To be noted: read-out: GTP-KRAS-G12D:SOS1 IC50. The method in brief:
(§1)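 Duplicate wells received an eleven-point, threefold compound titration whose top point was the stock solution; final DMSO 1%.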

The target in another experiment is T2, KRAS_G12D and cRAF (Homo sapiens, UniProt P01116, G12D).
T2 construct: purchased
T2 sequence (P01116 1-188 isoform P01116-2 G12D): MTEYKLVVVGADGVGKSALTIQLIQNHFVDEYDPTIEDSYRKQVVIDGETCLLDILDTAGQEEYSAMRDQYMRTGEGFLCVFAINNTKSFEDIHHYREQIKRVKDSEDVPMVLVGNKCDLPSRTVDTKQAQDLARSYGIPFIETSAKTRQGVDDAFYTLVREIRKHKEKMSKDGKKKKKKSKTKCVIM
Description: Inhibition of KRAS_G12D/cRAF binding (Cisbio binding kit, 665/615 ratio), Effect Embodiment B. Particulars: read-out: GTP-KRAS-G12D:CRAF IC50. In a few lines:
as §1

For a further experiment, the target named is T3, KRAS_WT and SOS1 (Homo sapiens, UniProt P01116).
T3 construct: purchased
T3 sequence (P01116 1-188 isoform P01116-2): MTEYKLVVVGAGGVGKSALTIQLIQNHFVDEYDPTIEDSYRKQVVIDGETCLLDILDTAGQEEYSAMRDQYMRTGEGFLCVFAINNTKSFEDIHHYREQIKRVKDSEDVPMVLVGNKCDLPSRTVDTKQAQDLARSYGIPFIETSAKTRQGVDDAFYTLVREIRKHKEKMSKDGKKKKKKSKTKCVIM
Description: Inhibition of KRAS_WT/SOS1 binding (Cisbio binding kit, 665/615 ratio), Effect Embodiment C. Particulars: read-out: GTP-KRAS-WT:SOS1 IC50. In a few lines: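 Compounds tested as 3-fold, 11-point dilutions in duplicate at 1% DMSO final against the KRAS_WT/SOS1 binding system. IC50 derived by nonlinear regression fit.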

T1 sequence (P01116 1-188 isoform P01116-2 G12D): as the sequence (P01116 1-188 isoform P01116-2 G12D) above

On to `Oc1cc(-c2c(Cl)cc3c(N4CC5CCC(C4)N5)nc(OCCCN4C5CCCC4COC5)nc3c2F)c2ccccc2c1` (single isomer, unassigned) [Compound 177, (R or S)-4-(2-(3-((1R,5S)-3-oxa-9-azabicyclo[3.3.1]nonan-9-yl)propoxy)-4-((1R,5S)-3,8-diazabicyclo[3.2.1]octan-3-yl)-6-chloro-8-fluoroquinazolin-7-yl)naphthalen-2-ol formate], for which the IC50 at KRAS-G12D and SOS1 amounted to 40.5 nM; on KRAS_G12D and cRAF, 121 nM; on KRAS_WT and SOS1 it was 1190 nM.
`CC(COc1nc(N2CC3CCC(C2)N3)c2cc(Cl)c(-c3cc(O)cc4ccccc34)c(F)c2n1)CN1C2CCC1COC2` (single isomer, unassigned) [Compound 178a, 4-((7R or 7S)-2-((2R or 2S)-3-(3-oxa-8-azabicyclo[3.2.1]octan-8-yl)-2-methylpropoxy)-4-((1R,5S)-3,8-diazabicyclo[3.2.1]octan-3-yl)-6-chloro-8-fluoroquinazolin-7-yl)naphthalen-2-ol diformate]: the IC50 at KRAS-G12D and SOS1 came to 21.6 nM; at KRAS_G12D and cRAF it was 18.1 nM; on KRAS_WT and SOS1, 836 nM.
In the same order, the values of `CC(COc1nc(N2CC3CCC(C2)N3)c2cc(Cl)c(-c3cc(O)cc4ccccc34)c(F)c2n1)CN1C2CCC1COC2` (single isomer, unassigned) [Compound 178b, 4-((7R or 7S)-2-((2S or 2R)-3-(3-oxa-8-azabicyclo[3.2.1]octan-8-yl)-2-methylpropoxy)-4-((1R,5S)-3,8-diazabicyclo[3.2.1]octan-3-yl)-6-chloro-8-fluoroquinazolin-7-yl)naphthalen-2-ol dicarboxylate] are 39.7 nM, 150 nM and 1050 nM.
The like results for `Oc1cc(-c2c(Cl)cc3c(N4CC5CCC(C4)N5)nc(OCC(F)CN4C5CCC4COC5)nc3c2F)c2ccccc2c1` (single isomer, unassigned) [Compound 179b, ((4R or 4S)-4-(2-((2S or 2R)-3-(3-oxa-8-azabicyclo[3.2.1]octan-8-yl)-2-fluoropropoxy)-4-((1R,5S)-3,8-diazabicyclo[3.2.1]octan-3-yl)-6-chloro-8-fluoroquinazolin-7-yl)naphthalen-2-ol diformate] were, in that order, 60 nM, 134 nM and 5400 nM.
Regarding `C[C@H]1COC[C@H](C)N1CCCOc1nc(N2CC3CCC(C2)N3)c2cc(Cl)c(-c3cc(O)cc4ccccc34)c(F)c2n1` (single isomer, unassigned) [Compound 180, 4-((R or S)-4-((1R,5S)-3,8-diazabicyclo[3.2.1]octan-3-yl)-6-chloro-2-(3-((3S,5S)-3,5-dimethylmorpholinyl)propoxy)-8-fluoroquinazolin-7-yl)naphthalen-2-ol diformate], the IC50 on KRAS-G12D and SOS1 stood at 87.3 nM; at KRAS_G12D and cRAF it was 256 nM; at KRAS_WT and SOS1, 3930 nM.
In the case of `C[C@@H]1COCCN1CCCOc1nc(N2C[C@H]3CC[C@@H](C2)N3)c2cc(Cl)c(-c3cc(O)cc4ccccc34)c(F)c2n1` (single isomer, unassigned) [Compound 181, (R or S)-4-(4-((1R,5S)-3,8-diazabicyclo[3.2.1]octan-3-yl)-6-chloro-8-fluoro-2-(3-((R)-3-methylmorpholinyl)propoxy)quinazolin-7-yl)naphthalen-2-ol diformate], the IC50 on KRAS-G12D and SOS1 stood at 38.1 nM; at KRAS_G12D and cRAF, 136 nM; on KRAS_WT and SOS1 it was 3090 nM.
In the same order, the values of `CO[C@@H](COc1nc(N2CC3CCC(C2)N3)c2cc(Cl)c(-c3cc(O)cc4ccccc34)c(F)c2n1)CN1C2CCC1COC2` (single isomer, unassigned) [Compound 182, (4R or S)-4-(2-((2R)-3-(3-oxa-8-azabicyclo[3.2.1]octan-8-yl)-2-methoxypropoxy)-4-((1R,5S)-3,8-diazabicyclo[3.2.1]octan-3-yl)-6-chloro-8-fluoroquinazolin-7-yl)naphthalen-2-ol diformate] are 53.3 nM, 219 nM and 3400 nM.
In the same order, the values of `CN1C[C@@H]2C[C@@H]2[C@H]1COc1nc(N2CC3CCC(C2)N3)c2cc(Cl)c(-c3cc(O)cc4ccccc34)c(F)c2n1` (single isomer, unassigned) [Compound 183, 4-((R or S)-4-((1R,5S)-3,8-diazabicyclo[3.2.1]octan-3-yl)-6-chloro-8-fluoro-2-((1S,2S,5R)-3-methyl-3-azabicyclo[3.1.0]hexan-2-yl)methoxy)quinazolin-7-yl)naphthalen-2-ol diformate] are 29.2 nM, 88.9 nM and 1510 nM.
As to `CN(C)CC1(COc2nc(N3CC4CCC(C3)N4)c3cc(Cl)c(-c4cc(O)cc5ccccc45)c(F)c3n2)CC1` (single isomer, unassigned) [Compound 186, 4-((R or S)-4-((1R,5S)-3,8-diazabicyclo[3.2.1]octan-3-yl)-6-chloro-2-((1-((dimethylamino)methyl)cyclopropyl)methoxy)-8-fluoroquinazolin-7-yl)naphthalen-2-ol diformate], the IC50 on KRAS-G12D and SOS1 was 16.9 nM; on KRAS_G12D and cRAF, 18.1 nM; at KRAS_WT and SOS1 it was 233 nM.
For the molecule `Oc1cc(-c2c(Cl)cc3c(N4CC5CCC(C4)N5)nc(OCCCN4CC5CCC4CO5)nc3c2F)c2ccccc2c1` (single isomer, unassigned) [Compound 187a, (R or S)-4-(2-(3-((1S,4S or 1R,4R)-2-oxa-5-azabicyclo[2.2.2]octan-5-yl)propoxy)-4-((1R,5S)-3,8-diazabicyclo[3.2.1]octan-3-yl)-6-chloro-8-fluoroquinazolin-7-yl)naphthalen-2-ol diformate], the half-maximal inhibitory concentration (IC50) worked out at 27.4 nM at KRAS-G12D and SOS1; 66.2 nM at KRAS_G12D and cRAF; 1350 nM on KRAS_WT and SOS1.
Take `Oc1cc(-c2c(Cl)cc3c(N4CC5CCC(C4)N5)nc(OCCCN4CC5CCC4CO5)nc3c2F)c2ccccc2c1` (single isomer, unassigned) [Compound 187b, (R or S)-4-(2-(3-((1R,4R or 1S,4S)-2-oxa-5-azabicyclo[2.2.2]octan-5-yl)propoxy)-4-((1R,5S)-3,8-diazabicyclo[3.2.1]octan-3-yl)-6-chloro-8-fluoroquinazolin-7-yl)naphthalen-2-ol diformate]: the IC50 on KRAS-G12D and SOS1 turned out to be 27.7 nM; on KRAS_G12D and cRAF, 115 nM; at KRAS_WT and SOS1 it was 1670 nM.
In the same order, the values of `Oc1cc(-c2c(Cl)cc3c(N4CC5CCC(C4)N5)nc(OCCCN4CC5CCC(C4)O5)nc3c2F)c2ccccc2c1` (single isomer, unassigned) [Compound 188, 4-((7R or S)-2-(3-(8-oxa-3-azabicyclo[3.2.1]octan-3-yl)propoxy)-4-((1R,5S)-3,8-diazabicyclo[3.2.1]octan-3-yl)-6-chloro-8-fluoroquinazolin-7-yl)naphthalen-2-ol formate] are 35.6 nM, 133 nM and 1020 nM.
On to `C[C@H]1C[C@@H](COc2nc(N3CC4CCC(C3)N4)c3cc(Cl)c(-c4cc(O)cc5ccccc45)c(F)c3n2)N(C)C1` (single isomer, unassigned) [Compound 190, 4-((R or S)-4-((1R,5S)-3,8-diazabicyclo[3.2.1]octan-3-yl)-6-chloro-2-((2S,4S)-1,4-dimethylpyrrolidin-2-yl)methoxy)-8-fluoroquinazolin-7-yl)naphthalen-2-ol diformate], for which the IC50 at KRAS-G12D and SOS1 turned out to be 15.3 nM; at KRAS_G12D and cRAF it was 28.9 nM; on KRAS_WT and SOS1 it was 292 nM.
Turning to `CN1CCC[C@H]1COc1nc(N2CC3(C)CCC(C)(C2)N3)c2cc(Cl)c(-c3cc(O)cc4ccccc34)c(F)c2n1` (single isomer, unassigned) [Compound 194a, 4-((R or S)-6-chloro-4-((1R,5S)-1,5-dimethyl-3,8-diazabicyclo[3.2.1]octan-3-yl)-8-fluoro-2-(((S)-1-methylpyrrolidin-2-yl)methoxy)quinazolin-7-yl)naphthalen-2-ol diformate], the IC50 at KRAS-G12D and SOS1 came out at 27.9 nM; at KRAS_G12D and cRAF, 155 nM; at KRAS_WT and SOS1, 205 nM.
As for `CN1CCC[C@H]1COc1nc(N2CC3CCC(C2)N3)c2cc(Cl)c(-c3c(F)c(O)cc4ccccc34)c(F)c2n1` (single isomer, unassigned) [Compound 195b, (S or R)-4-(4-((1R,5S)-3,8-diazabicyclo[3.2.1]octan-3-yl)-6-chloro-8-fluoro-2-((S)-1-methylpyrrolidin-2-yl)methoxy)quinazolin-7-yl)-3-fluoronaphthalen-2-ol formate], the IC50 at KRAS-G12D and SOS1 is 57.7 nM; on KRAS_G12D and cRAF, 334 nM; on KRAS_WT and SOS1, 6490 nM.
`Oc1cc(Cl)c(C2CC2)c(-c2c(Cl)cc3c(N4C[C@H]5CC[C@@H](C4)N5)nc(OCCCN4C5CCC4COC5)nc3c2F)c1` (single isomer, unassigned) [Compound 197a, 3-((7R or 7S)-2-(3-(3-oxa-8-azabicyclo[3.2.1]octan-8-yl)propoxy)-4-((1R,5S)-3,8-diazabicyclo[3.2.1]octan-3-yl)-6-chloro-8-fluoroquinazolin-7-yl)-5-chloro-4-cyclopropylphenol formate]: the IC50 on KRAS-G12D and SOS1 amounted to 17.8 nM; on KRAS_G12D and cRAF it was 59.8 nM; on KRAS_WT and SOS1, 833 nM.
For the molecule `Oc1cc(Cl)c(C2CC2)c(-c2c(Cl)cc3c(N4CC5CCC(C4)N5)nc(OC[C@@]45CCCN4C[C@H](F)C5)nc3c2F)c1` (single isomer, unassigned) [Compound 198a, 3-((R or S)-4-((1R,5S)-3,8-diazabicyclo[3.2.1]octan-3-yl)-6-chloro-8-fluoro-2-((2R,7aS)-2-fluorotetrahydro-1H-pyrrolin-7a(5H)-yl)methoxy)quinazolin-7-yl)-5-chloro-4-cyclopropylphenol formate], the concentration for half-maximal inhibition (IC50) is 11.4 nM at KRAS-G12D and SOS1; 6.11 nM on KRAS_G12D and cRAF; 23.5 nM on KRAS_WT and SOS1.
